Biological target: T1, human RXFP1 (Homo sapiens, UniProt Q9HBX9)
T1 construct: expressed in transfected cells
T1 sequence (Q9HBX9 1-757): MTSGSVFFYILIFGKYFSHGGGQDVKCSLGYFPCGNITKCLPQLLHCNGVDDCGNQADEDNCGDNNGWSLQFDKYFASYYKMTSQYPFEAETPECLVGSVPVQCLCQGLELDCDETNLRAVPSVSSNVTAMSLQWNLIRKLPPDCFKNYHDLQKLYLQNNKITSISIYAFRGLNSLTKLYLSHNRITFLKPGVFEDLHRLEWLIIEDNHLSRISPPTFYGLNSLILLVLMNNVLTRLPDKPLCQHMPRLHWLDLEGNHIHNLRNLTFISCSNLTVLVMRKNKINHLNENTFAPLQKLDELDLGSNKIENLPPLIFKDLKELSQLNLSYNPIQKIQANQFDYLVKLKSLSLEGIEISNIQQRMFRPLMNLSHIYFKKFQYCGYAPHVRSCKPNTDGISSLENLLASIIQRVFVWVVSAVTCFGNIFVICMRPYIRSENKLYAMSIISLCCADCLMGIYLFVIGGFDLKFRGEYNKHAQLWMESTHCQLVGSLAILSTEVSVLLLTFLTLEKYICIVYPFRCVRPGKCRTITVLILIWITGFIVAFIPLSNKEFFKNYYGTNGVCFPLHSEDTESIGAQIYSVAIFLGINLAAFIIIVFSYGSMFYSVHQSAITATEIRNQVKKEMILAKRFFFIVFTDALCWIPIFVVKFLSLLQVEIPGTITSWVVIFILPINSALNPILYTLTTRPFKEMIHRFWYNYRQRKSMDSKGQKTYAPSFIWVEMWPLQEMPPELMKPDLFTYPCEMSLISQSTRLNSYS
Assay: RXFP1 cAMP assay (hRXFP1 HEK293 cAMP assay, HTRF)
Assay type: cell-based
Details: HEK293 cells stably expressing human RXFP1, 30 min at room temperature, read-out: cAMP hRXFP1 HEK293 Assay EC50
How it was run: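 Intracellular cAMP was read by HTRF, with potency fitted to a 4-parameter logistic curve. Compound exposure (0.010 nM–50 μM final, 2% DMSO) lasted 30 min at room temperature. Cells were hRXFP1-HEK293 at 1500 per well in IBMX-containing (0.5 mM) HEPES-buffered HBSS.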

Row | Structure (SMILES) | EC50 [nM]
1 | COc1ccc(C2=NOC3CC(CO)CC23)cc1C(=O)N[C@H]1[C@@H](C(=O)N[C@H](C)C2(C)CC2)[C@H]2CC[C@@H]1/C2=C\c1csc(C)n1 (some centres unmarked) [compound 742] | 4.7
2 | COc1ccc(-c2cc(C(=O)N3CC[C@@H](O)C3)on2)cc1C(=O)N[C@H]1[C@@H](C(=O)Nc2ccc(F)c(C(F)(F)F)c2)[C@H]2CC[C@@H]1/C2=C\C1CC1 [compound 617] | 153
3 | COc1ccc(C2CC3CNS(=O)(=O)C32)cc1C(=O)N[C@H]1[C@@H](C(=O)Nc2ccc(F)c(C(F)(F)F)c2)[C@H]2CC[C@@H]1/C2=C\C1CC1 (single isomer, unassigned) [compound 732] | 99
4 | COc1ccc(-c2cc(C(OC(=O)Nc3ccccc3)C(F)(F)F)ccc2F)cc1C(=O)N[C@@H]1C2CCC(/C2=C/C2CC2)[C@@H]1C(=O)Nc1ccc(F)c(C(F)(F)F)c1 (single isomer, unassigned) [compound 229] | 7
5 | COc1ccc(C2=NOC3CC(CO)CC23)cc1C(=O)N[C@H]1[C@@H](C(=O)Nc2ccc(F)c(C(F)(F)F)c2)[C@H]2CC[C@@H]1/C2=C\CC1CC(F)(F)C1 (some centres unmarked) [compound 959] | 6.1
6 | COc1ccc(-c2cc(C(F)F)ccc2F)cc1C(=O)N[C@@H]1C2CCC(/C2=C/C2CC2)[C@@H]1C(=O)Nc1ccc(F)c(C(F)(F)F)c1 (some centres unmarked) [compound 280] | 12
7 | COc1ccc(-c2cc(C(OC(=O)Nc3ccccc3)C(=O)O)ccc2F)cc1C(=O)N[C@@H]1C2CCC(/C2=C/C2CC2)[C@@H]1C(=O)Nc1ccc(F)c(C(F)(F)F)c1 (some centres unmarked) [Example 177] | 5
8 | COc1ccc(C2=NOC3(CO)CCC23CO)cc1C(=O)N[C@H]1[C@@H](C(=O)Nc2ccc(F)c(C(F)(F)F)c2)[C@H]2CC[C@@H]1/C2=C\C1CC1 (single isomer, unassigned) [Example 461] | 2.6
9 | COc1ccc(-c2cc(C(=O)NS(=O)(=O)c3ccccc3)ccc2F)cc1C(=O)N[C@@H]1C2CCC(C2=C(C)C)[C@@H]1C(=O)Nc1ccc(F)c(C(F)(F)F)c1 (some centres unmarked) [Example 150] | 190
10 | COCCN1CCCC1c1ccc(OC)c(C(=O)N[C@@H]2C3CCC(C3=CC3CC3)[C@@H]2C(=O)Nc2ccc(F)c(C(F)(F)F)c2)c1 (some centres unmarked) [compound 689] | 684
11 | COc1ccc(C2CCCN2C(=O)C(C)(C)O)cc1C(=O)N[C@@H]1C2CCC(C2=CC2CC2)[C@@H]1C(=O)Nc1ccc(F)c(C(F)(F)F)c1 (some centres unmarked) [compound 688] | 675
12 | COc1ccc(C2=NO[C@H]3COC[C@@H]23)cc1C(=O)N[C@H]1[C@@H](C(=O)Nc2ccc(F)c(C(F)(F)F)c2)[C@H]2CC[C@@H]1/C2=C\C1CCCC1 [compound 819] | 2.3
13 | COc1ccc(-c2cccnc2F)cc1C(=O)N[C@H]1[C@@H](C(=O)Nc2ccc(F)c(C(F)(F)F)c2)[C@H]2CC[C@@H]1C2=C(C)C [compound 102] | 590
14 | COc1ccc(-c2cc(C(C)(C)O)on2)cc1C(=O)N[C@@H]1C2CCC(/C2=C/C2CC2)[C@@H]1C(=O)Nc1ccc(F)c(C(F)(F)F)c1 (some centres unmarked) [compound 425] | 19
15 | COc1ccc(-c2cc(C3OC(=O)N(c4ccccc4)C3=O)ccc2F)cc1C(=O)N[C@@H]1C2CCC(/C2=C/C2CC2)[C@@H]1C(=O)Nc1ccc(F)c(C(F)(F)F)c1 (some centres unmarked) [compound 255] | 3
16 | COc1ccc(-c2cc(C(=O)O)ccc2F)cc1C(=O)N[C@@H]1C2CCC(/C2=C/c2cn(Cc3ccccc3)nn2)[C@@H]1C(=O)Nc1ccc(F)c(C(F)(F)F)c1 (some centres unmarked) [compound 326] | 2270
17 | COc1ccc(C2=NOC3COCC23)cc1C(=O)N[C@H]1[C@@H](C(=O)NCC2(c3ccccc3)CC2)[C@H]2CC[C@@H]1/C2=C\C1CC1 (some centres unmarked) [compound 572] | 66.4
18 | COc1ccc(C2=NOC3(C2)CC(CO)C3)cc1C(=O)N[C@H]1[C@@H](C(=O)Nc2ccc(F)c(C(F)(F)F)c2)[C@H]2CC[C@@H]1/C2=C\C1CC1 (single isomer, unassigned) [compound 711] | 1560
19 | O=C(NC1CCC1)OC(c1ccc(F)c(-c2ccc(OCc3ccccc3)c(C(=O)N[C@@H]3C4CCC(/C4=C/C4CC4)[C@@H]3C(=O)Nc3ccc(F)c(C(F)(F)F)c3)c2)c1)C(F)(F)F (some centres unmarked) [compound 252] | 11
20 | COc1ccc(-c2cc(C(=O)O)ccc2F)cc1C(=O)N[C@@H]1C2CCC(/C2=C/C2CC2)[C@@H]1C(=O)Nc1ccc(F)c(F)c1F (some centres unmarked) [compound 305] | 1380
21 | COc1ccc(C2=NOC3CC(C#N)CC23)cc1C(=O)N[C@H]1[C@@H](C(=O)N[C@H](C)C2(C)CC2)[C@H]2CC[C@@H]1/C2=C\C1CC1 (some centres unmarked) [compound 760] | 1.2

Row | Structure (SMILES) | EC50 [nM]
22 | COc1ccc(-c2cc([C@H](OC(=O)NC3CC3)C(F)(F)F)ccc2F)cc1C(=O)N[C@H]1[C@@H](C(=O)Nc2ccc(F)c(C(F)(F)F)c2)[C@H]2CC[C@@H]1/C2=C\CCC(F)(F)F [compound 928] | 1.4
23 | COc1ccc(C2CCCN2CC(C)(C)O)cc1C(=O)N[C@@H]1C2CCC(C2=CC2CC2)[C@@H]1C(=O)Nc1ccc(F)c(C(F)(F)F)c1 (some centres unmarked) [compound 607] | 128
24 | COc1ccc(C2CC3CN(CCCO)C(=O)C32)cc1C(=O)N[C@H]1[C@@H](C(=O)Nc2ccc(F)c(C(F)(F)F)c2)[C@H]2CC[C@@H]1/C2=C\C1CC1 (single isomer, unassigned) [compound 734] | 23
25 | COc1ccc(C2=NOC(C)(C(=O)O)C2)cc1C(=O)N[C@@H]1C2CCC(/C2=C/C2CC2)[C@@H]1C(=O)Nc1ccc(F)c(C(F)(F)F)c1 (some centres unmarked) [compound 421] | 831
26 | COc1ccc(-c2cc(C3=NOC(CO)C3)ccc2F)cc1C(=O)N[C@H]1[C@@H](C(=O)Nc2ccc(F)c(C(F)(F)F)c2)[C@H]2CC[C@@H]1/C2=C\C1CC1 (some centres unmarked) [compound 906] | 6.8
27 | COc1ccc(-c2cc(C(OC(=O)NC(C)(C)C)C(=O)O)ccc2F)cc1C(=O)N[C@H]1[C@@H](C(=O)Nc2ccc(F)c(C(F)(F)F)c2)[C@H]2CC[C@@H]1/C2=C\CCC(F)(F)F (some centres unmarked) [compound 934] | 1.4
28 | O=C(N[C@H]1[C@@H](C(=O)Nc2ccc(F)c(C(F)(F)F)c2)[C@H]2CC[C@@H]1/C2=C\C1CC1)c1cc(C2=NOC3COCC23)ccc1F (single isomer, unassigned) [compound 677] | 501
29 | COc1ccc(-c2cc(C(N)=O)ccc2F)cc1C(=O)N[C@@H]1C2CCC(C2=C(C)C)[C@@H]1C(=O)Nc1ccc(F)c(C(F)(F)F)c1 (some centres unmarked) [Example 121] | 16
30 | COc1ccc(-c2cc(C(=O)NS(C)(=O)=O)ccc2F)cc1C(=O)N[C@@H]1C2CCC(C2=C(C)C)[C@@H]1C(=O)Nc1ccc(F)c(C(F)(F)F)c1 (some centres unmarked) [compound 131] | 130
31 | COc1ccc(-c2cc(C(OC(=O)Nc3ccccc3)C(F)(F)F)ccc2F)cc1C(=O)N[C@@H]1C2CCC(/C2=C/C2CC2)[C@@H]1C(=O)Nc1ccc(F)c(C(F)(F)F)c1 (single isomer, unassigned) [compound 224] | 2
32 | COc1ccccc1NC(=O)OC(c1ccc(F)c(-c2ccc(OC)c(C(=O)N[C@@H]3C4CCC(/C4=C/C4CC4)[C@@H]3C(=O)Nc3ccc(F)c(C(F)(F)F)c3)c2)c1)C(F)(F)F (some centres unmarked) [compound 225] | 3
33 | COc1ccc(N2CC(=O)NC2=O)cc1C(=O)N[C@H]1[C@@H](C(=O)Nc2ccc(F)c(C(F)(F)F)c2)[C@H]2CC[C@@H]1/C2=C\C1CC1 [compound 697] | 972
34 | COc1cc(F)c(F)cc1C(=O)N[C@@H]1C2CCC(/C2=C/c2ccsc2)[C@@H]1C(=O)Nc1ccc(F)c(C(F)(F)F)c1 (some centres unmarked) [compound 36] | 19
35 | COc1ccc(C2=NOC3CC(C)(CO)CC23)cc1C(=O)N[C@H]1[C@@H](C(=O)N[C@H](C)C2(C)CC2)[C@H]2CC[C@@H]1/C2=C\c1csc(C(F)(F)F)n1 (some centres unmarked) [compound 915] | 4
36 | COc1ccc(C2=NOC3CC(CO)CC23)cc1C(=O)N[C@@H]1C2CCC(/C2=C/C2CC2)[C@@H]1C(=O)Nc1ccc(F)c(C(F)(F)F)c1 (single isomer, unassigned) [Example 430] | 194
37 | COc1ccc(C2CCN(CC(C)(C)O)C2)cc1C(=O)N[C@@H]1C2CCC(C2=CC2CC2)[C@@H]1C(=O)Nc1ccc(F)c(C(F)(F)F)c1 (some centres unmarked) [compound 601] | 108
38 | COc1ccc(/C=C2\C3CCC2[C@H](C(=O)Nc2ccc(F)c(C(F)(F)F)c2)[C@@H]3NC(=O)c2cc(F)c(F)cc2OC)cc1 (some centres unmarked) [compound 20] | 940
39 | Cc1ccc(C2=NOC3COCC23)cc1C(=O)N[C@H]1[C@@H](C(=O)Nc2ccc(F)c(C(F)(F)F)c2)[C@H]2CC[C@@H]1/C2=C\C1CC1 (single isomer, unassigned) [compound 716] | 1980
40 | COc1ccc(C2=NOC3CC(CO)CC23)cc1C(=O)N[C@H]1[C@@H](C(=O)Nc2ccc(F)c(C(F)(F)F)c2)[C@H]2CC[C@@H]1C2CC1CCC1 (some centres unmarked) [compound 523] | 21.3
41 | COc1ccc(C2CCCN2)cc1C(=O)N[C@@H]1C2CCC(C2=CC2CC2)[C@@H]1C(=O)Nc1ccc(F)c(C(F)(F)F)c1 (some centres unmarked) [compound 720] | 3140

Source: patent publication US20250221966A1, “RXFP1 AGONISTS” (BRISTOL-MYERS SQUIBB COMPANY, priority 2021, published 2025)
